Data on 4 molecules can be found in patent US12582721B2, “Molybdenum-based feed supplement for bees” (UNIVERSITE DE VERSAILLES—SAINT-QUENTIN-EN-YVELINES, priority 2020, dated 2026).

The subject of one assay is Varroa destructor. Briefly: 1st test in hives: degree of infestation with Varroa. In kind it is in vivo. The conditions noted are these: for Degree of infestation with Varroa / Degree of infestation with Varroa, change versus batch I: overall dose 2 mg per colony; for Degree of infestation with Varroa: 100 = 1.78 mite/10 g of bees; for Degree of infestation with Varroa, change versus batch I: value in brackets. The method, then:
Biological field tests were performed on families of European domestic bees of the species Apis mellifera […] experimental apiary located in the […] forestry district (Republic of Moldova). Feeding with the complex of the invention took place in spring. The biological tests were monitored up to the month of September. To administer the compounds to the bees, a very small amount of bioactive substance was added to two types of sugary feeding products for bees: candy in the form of a paste (70% sucrose, 30% honey) or syrup (50% sucrose, 50% water). The bees were fed by adding the candy/syrup to the feeder located in the inner upper part of the hive. The volume of syrup was adjusted based on the number of bee frames at the initial time, more precisely 200 g of candy per frame and 100 mL of syrup per frame, that is 2 kg of candy and 1 L of syrup per hive of 10 frames. For the first feeding step, candy in the form of a paste was only given once. […] From the start of the test to the end (after the second harvest), all the bees were monitored for several key morpho-producing parameters that reflect the development level of the colony and the vital aspects of the bees. The parameters studied are: the prolificity of the queen (fertility), the power of the colonies, the production of honey and the production of wax. These parameters were monitored in line with the zootechnical standards concerning the assessment of bee families, breeding and certification of beekeeping parental material approved by government decision No. 306 dated Apr. 28, 2011 of the Republic of Moldova. The assessment consists in counting the number of Varroa on a sample of adult bees. The value from this count is used as an index for monitoring the level of parasitism in the colony. The method uses icing sugar and a “shaker” jar made of transparent glass with a capacity of 1 kg. The cover is a mesh made of galvanized steel of the type placed at the bottom of the hive, with a mesh size of 3 mm. The mesh allows Varroa mites to pass through but retains the honey bees. The method is implemented according to the following steps: 40 to 50 g of honey bees are collected in the jar (approximately 400 bees), 100 g of icing sugar is added and the shaker jar is rolled for 1 minute so as to cover every bee in icing sugar. The icing sugar then makes it possible to separate the Varroa mites from the body of the host bee so that they drop off. Leave to rest for 1 minute: bees have a delousing behavior, which helps the Varroa mites to drop off. The icing sugar is sieved over a sieve which makes it possible to retain the Varroa mites and then count them. The result is given as the number of mites per 10 g of bees (approximately 100 bees) and can be expressed as a %. This rate is indicative of the Varroa burden in the colony. […] A moderate rate is between 2 and 5 and, in this case, treatment of the colonies must be scheduled. Finally, a rate greater than 5, requires emergency treatment of the colony. Our tests give a result of around 2% for worker bees. The molecules tested, their concentration in solution and their annual overall doses are listed below: • 1. […] The concentration of the complex in the syrup: 1.5×10^-7 mol/L. Overall and annual product dose: 2 mg of complex per colony • 2. […] The concentration of the complex in syrup: 3.0×10^-7 mol/L. Overall and annual product dose: 2 mg of complex per colony • 3. […] Overall and annual product dose: 2 mg of complex per colony • 4. LiCH3COO·H2O as a positive control, abbreviated as Li-Ac • The feeding is carried out with 2000 g of candy containing 0.8 mg of positive control product, then 6 to 7 L of syrup containing 0.2 mg/L of positive control product. The concentration of the product in syrup: 2.36×10^-6 mol/L that is 1.67×10^-5 g/L. Overall and annual product dose: 2 mg of product per colony

The test system of assay [1] is human epithelial pancreatic adenocarcinoma cells of the BxPC-3 line. Briefly: Resazurin cell proliferation test, BxPC-3 cells. In kind it is cell-based. The conditions noted are these: pancreatic cancer cells; IC50 equal to and greater than 100 μM considered no activity. From the text: For cell culture, human cervical epithelial cells of the HeLa line, human epithelial pancreatic adenocarcinoma cells of the BxPC-3 line and healthy Madin-Darby canine kidney epithelial cells of the MDCK line were used in this study. The Resazurin cell proliferation test was applied according to the literature (S. Anoopkumar-Dukie, J. B. Carey, T. Conere, E. O'Sullivan, F. N. van Pelt, A. Allshire, Br J Radiol 2005, 78, 945, DOI: 10.1259/bjr/54004230). As an indicator of the effectiveness of the experimental compounds on cell proliferation, the median inhibitory concentration (IC50) was used. The lower the IC50 value, the higher the activity (in this case, the cytotoxicity).
Five formula I complexes were tested in this study in comparison to two reference anti-cancer compounds (“Cisplatin” and Doxorubicin complex).

Structures are written as SMILES.

As to `CC(=O)[O-].[Li+]` [Li—Ac, LiCH3COO·H2O, reference compound], in the assay with Varroa destructor, the “Degree of infestation with Varroa” value is recorded as 58.4 % relative to batch I and the “Degree of infestation with Varroa, change versus batch I” value (“Degree … change versus batch I” for short) was −41.6%.
With `O.O.O.O.O.O.O=C([O-])CN(CCN(CC(=O)[O-])CC(=O)[O-])CC(=O)[O-].[Li+].[Li+].[O]=[Mo+]12[O][Mo+]1(=[O])[O]2` [Li—Mo2O4-EDTA, Li2[Mo2O4 (EDTA)]·6H2O], the “IC50, BxPc-3” value in assay [1] is “Inactive”. In the assay on Varroa destructor (1st test, 2 mg per colony, relative to untreated batch I, Li complex at a lithium concentration almost 4 times lower than Li—Ac), the “Protective effect against the infestation of bees by Varroa destructor” value is “protective capacity comparable to that of the lithium acetate”. For the same molecule, in the assay on Varroa destructor, the “Degree of infestation with Varroa” value is on record as 57.3 % relative to batch I and the “Degree … change versus batch I” value is recorded as −42.7%.
For the molecule `O.O.O.O.O.O=C([O-])CN(CCN(CC(=O)[O-])CC(=O)[O-])CC(=O)[O-].[Na+].[Na+].[O]=[Mo+]12[O][Mo+]1(=[O])[O]2` [Na—Mo2O4-EDTA, Na2[Mo2O4 (EDTA)]·5H2O], the “IC50, BxPc-3” value in assay [1] was “Inactive”. For the same molecule, in the assay with Varroa destructor, the “Degree of infestation with Varroa” value is recorded as 86.5 % relative to batch I and the “Degree … change versus batch I” value is −13.5%.
The term IC50 denotes the midpoint of a concentration-inhibition curve. Take `O=C([O-])CN(CCN(CC(=O)[O-])CC(=O)[O-])CC(=O)[O-].[O]=[Mo+]12[O][Mo+]1(=[O])[O]2.c1ccc([P+](c2ccccc2)(c2ccccc2)c2ccccc2)cc1.c1ccc([P+](c2ccccc2)(c2ccccc2)c2ccccc2)cc1` [PPh4—Mo2O4-EDTA, (PPh4)2[Mo2O4 (EDTA)]·2.5H2O]: the IC50 in assay [1] was 25.1 ± 7.02 µM. In addition, in the assay on Varroa destructor, the “Degree of infestation with Varroa” value was 78.7 % relative to batch I and the “Degree … change versus batch I” value is listed as −21.3%.
